Test results: patent US20210087217A1, “NUCLEOTIDE HEMI-SULFATE SALT FOR THE TREATMENT OF HEPATITIS C VIRUS” (Atea Pharmaceuticals, Inc., priority 2017, published 2021)
“Also recorded” adds a separate entry of the source. Where a name gives a salt, the structure may show the parent alone. Read-outs that look alike come from different tables or passages of the source.

Test: Storage of Compound 1 forms and amorphous salts at 25° C./60% RH for 14 days (HPLC, XRPD, observation)
Conditions: for Physical/chemical stability and appearance on storage: 25° C./60% RH, 14 days
Protocol: This initial characterization was followed by storage at 25° C./60% relative humidity (RH) for 14 days with analysis by […] and XRPD after 7 and 14 days. FIG. 4A is the XRPD after 14 days at 25° C./60% (RH).
The samples were then frozen with the solvent removed by lyophilization.
The samples were then subjected to storage at 25° C./60% relative humidity (RH) for 14 days with analysis by HPLC and XRPD after 7 (FIG. 4B) and 14 days (FIG. 5A).

| Compound | Physical/chemical stability and appearance on storage | Hygroscopicity (listed as HCl salt) | HPLC purity (0 days at 25° C./60% RH) | Observation (0 days at 25° C./60% RH) | HPLC purity (7 days at 25° C./60% RH) | Observation (7 days at 25° C./60% RH) | HPLC purity (14 days at 25° C./60% RH) | Observation (14 days at 25° C./60% RH) | Hygroscopicity |
| --- | --- | --- | --- | --- | --- | --- | --- | --- | --- |
| CNc1nc(N)nc2c1ncn2[C@@H]1O[C@H](CO[P@@](=O)(N[C@@H](C)C(=O)OC(C)C)Oc2ccccc2)[C@@H](O)[C@@]1(C)F [Compound 3, mono-sulfate salt of isopropyl((S)-(((2R,3R,4R,5R)-5-(2-amino-6-(methylamino)-9H-purin-9-yl)-4-fluoro-3-hydroxy-4-methyltetrahydrofuran-2-yl)methoxy)(phenoxy)phosphoryl)-L-alaninate] | unstable; also recorded: not physically stable | – | – | – | – | – | – | – | – |
| CNc1nc(N)nc2c1ncn2[C@@H]1O[C@H](CO[P@@](=O)(N[C@@H](C)C(=O)OC(C)C)Oc2ccccc2)[C@@H](O)[C@@]1(C)F [Compound 5] | – | more hydroscopic than the hemisulfate salt | – | – | – | – | – | – | – |
| CNc1nc(N)nc2c1ncn2[C@@H]1O[C@H](CO[P@@](=O)(N[C@@H](C)C(=O)OC(C)C)Oc2ccccc2)[C@@H](O)[C@@]1(C)F [Sample 1-1] | stable | – | 98.6 | White solid | 98.7 | White solid | 98.5 | White solid | – |
| CNc1nc(N)nc2c1ncn2[C@@H]1O[C@H](CO[P@@](=O)(N[C@@H](C)C(=O)OC(C)C)Oc2ccccc2)[C@@H](O)[C@@]1(C)F [Sample 1-2] | stable | – | 99.1 | White solid | 99.2 | White solid | 99.0 | White solid | – |
| CNc1nc(N)nc2c1ncn2[C@@H]1O[C@H](CO[P@@](=O)(N[C@@H](C)C(=O)OC(C)C)Oc2ccccc2)[C@@H](O)[C@@]1(C)F [Sample 1-3] | – | – | 99.7 | White solid | 99.6 | White solid | 99.4 | White solid | – |
| CNc1nc(N)nc2c1ncn2C1OC(COP(=O)(NC(C)C(=O)OC(C)C)Oc2ccccc2)C(O)C1(C)F.Cl (stereo not shown) [Sample 1-4] | physically and chemically stable | – | 98.7 | White solid | 98.8 | White solid | 98.6 | White solid | hygroscopic |
| CNc1nc(N)nc2c1ncn2C1OC(COP(=O)(NC(C)C(=O)OC(C)C)Oc2ccccc2)C(O)C1(C)F.O=S(=O)(O)O (stereo not shown) [Sample 1-5] | physically unstable | – | 98.4 | White solid | 55.7 | Sticky white | – | Sticky gum | – |
| CNc1nc(N)nc2c1ncn2C1OC(COP(=O)(NC(C)C(=O)OC(C)C)Oc2ccccc2)C(O)C1(C)F.CNc1nc(N)nc2c1ncn2C1OC(COP(=O)(NC(C)C(=O)OC(C)C)Oc2ccccc2)C(O)C1(C)F.O=S(=O)(O)O (stereo not shown) [Sample 1-9] | physically and chemically stable | – | 98.7 | White solid | 98.1 | White solid | 96.4 | White solid | – |
